#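 Exposure lasted 48 hours, with cells grown in 96-well plates and compounds tested at five concentrations. Abbreviation: GI50, concentration required for 50% inhibition of growth. TGI is the concentration that stops growth completely.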
# Columns and labels:
# Test in all cases: NCI-60 cell line screen, 48 h
# HT29 colon = test system: HT29 colon
# SN12C renal = test system: SN12C renal
# 786-0 renal = test system: 786-0 renal
# MOLT-4 leukemia = test system: MOLT-4 leukemia
# HOP-92 NSCLC = test system: HOP-92 NSCLC
# OVCAR-8 ovarian = test system: OVCAR-8 ovarian
# SW-620 colon = test system: SW-620 colon
# UACC-257 melanoma = test system: UACC-257 melanoma
# A549 NSCLC = test system: A549 NSCLC
# PC-3 prostate = test system: PC-3 prostate
Compound,GI50 (HT29 colon) [nM],TGI (HT29 colon) [µM],GI50 (SN12C renal) [µM],TGI (SN12C renal) [µM],GI50 (786-0 renal) [nM],TGI (786-0 renal) [µM],GI50 (MOLT-4 leukemia) [nM],TGI (MOLT-4 leukemia) [µM],GI50 (HOP-92 NSCLC) [µM],TGI (HOP-92 NSCLC) [µM],GI50 (OVCAR-8 ovarian) [µM],TGI (OVCAR-8 ovarian) [µM],GI50 (SW-620 colon) [µM],TGI (SW-620 colon) [µM],GI50 (UACC-257 melanoma) [nM],TGI (UACC-257 melanoma) [µM],GI50 (A549 NSCLC) [µM],TGI (A549 NSCLC) [µM],GI50 (PC-3 prostate) [nM],TGI (PC-3 prostate) [µM]
C=CCSc1n[nH]c(-c2cccs2)n1,> 100000,> 100,> 100,> 100,> 100000,> 100,> 100000,> 100,> 100,> 100,> 100,> 100,> 100,> 100,> 100000,> 100,> 100,> 100,> 100000,> 100
O=C(C#Cc1c[nH]c(=O)[nH]c1=O)c1ccccc1,,53.7,,15.9,,24.6,,7.96,,27,,22.4,,18.9,,23.8,,64.1,,
Cc1ccc(C(=O)/C=C/c2ccccc2Cl)cc1,,29.7,,39.3,,29.7,,56.1,,63.5,,29.6,,27,,33.6,,85.4,,
C=C1CC2(OC1=O)c1ccccc1CCc1ccccc12,,3.6,,5.47,,3.17,,7.18,,3.14,,9.9,,3.02,,7.9,,21.8,,27.4
CC1=COC2=C(C)C(=O)C(=O)c3c(C)ccc1c32,,12.8,,14.1,,19.6,,12,,39.9,,12.4,,28.9,,20.6,,15.2,,22.5
N#Cc1c(NC(=O)CCC(=O)O)ccc2ccccc12,,> 100,,> 100,,> 100,,,,> 100,,> 100,,> 100,,> 100,,> 100,,> 100
CC1CC(=O)C(C(O)CC2CC(=O)N(c3ccccc3)C(=O)C2)C(C)C1 (centres undefined),,> 100,,> 100,,> 100,,> 100,,> 100,,> 100,,> 100,,> 100,,> 100,,
CCCCCN(CCCCC)C(=O)[C@@H](CCC(=O)OCc1ccccc1)NC(=O)c1cc2ccccc2[nH]1,,> 100,,> 100,,> 100,,,,> 100,,> 100,,> 100,,> 100,,> 100,,
COc1ccc(/C=N/NC(=O)O)cc1,,> 100,,> 100,,> 100,,> 100,,,,,,> 100,,> 100,,> 100,,> 100
Cc1cccc(NC(=O)CC2C(=O)Nc3ccccc3S2(=O)=O)c1C (centres undefined),,> 100,,> 100,,76.1,,> 100,,37.9,,44.4,,84.2,,> 100,,> 100,,
C=C(C)C1CC[C@]2(C(=O)O)CCC3(C)[C@H](CCC4[C@@]5(C)CC[C@H](OC6OC(CO)C(O)C6OC6OC(C)C(O)C(O)C6O)[C@@](C)(CO)C5CC[C@]43C)C12 (some centres undefined),,> 100,,> 100,,> 100,,> 100,,,,> 100,,> 100,,,,> 100,,
COc1ccc(-c2c(N)[n+]([O-])c3cc(C)c(C)cc3[n+]2[O-])cc1OC,,> 100,,> 100,,> 100,,> 100,,,,> 100,,> 100,,> 100,,> 100,,
CSc1s[s+]c(SC)c1[O-],,74.1,,52.5,,30.3,,48.2,,> 100,,43.7,,31.7,,50.2,,> 100,,
C=C(CO)CC(O)c1ccccc1 (centres undefined),,> 100,,> 100,,> 100,,> 100,,> 100,,> 100,,> 100,,,,> 100,,
C/C=C/C=C/[C@H]1Cc2cc(O)cc(O)c2O1,,> 100,,> 100,,> 100,,> 100,,> 100,,> 100,,> 100,,> 100,,> 100,,
CC1=CCC2(C#N)CCC1C2=O (centres undefined),,> 100,,> 100,,> 100,,> 100,,,,> 100,,> 100,,> 100,,> 100,,
COC(=O)C1CCc2c(OC)ccc(OC)c2C1=O (centres undefined),,> 100,,,,> 100,,> 100,,> 100,,> 100,,> 100,,> 100,,> 100,,
Clc1ccc2c(NCCCN3CCN(c4nc(-n5ccnc5)nc5ccccc45)CC3)ccnc2c1,1880,4.47,> 100,> 100,1660,3.21,2380,6.85,14.3,> 62.3,,,,,2000,3.81,,,,> 100
COCCN1C2=CCCCC2=Nc2c(N)nc(N)nc21,,> 100,,> 100,,> 100,,> 100,,> 100,,> 100,,,,> 100,,> 100,,
CN/N=C(\C)CC(=O)Nc1cccc(Cl)c1C,,> 100,,> 100,,> 100,,> 100,,> 100,,> 100,,,,> 100,,> 100,,
O=C1C=C(Br)C(=O)C(Br)=C1,,> 100,,> 100,,> 100,,> 86.2,,> 100,,> 100,,> 100,,> 100,,> 100,,
O=C(Nc1cc(C(F)(F)F)ccc1Cl)C(=O)C(C(=O)c1ccc2ccccc2c1)C1OC(=O)c2ccccc21 (centres undefined),,31.7,,21,,17.7,,9.16,,28.1,,24.8,,37.8,,26,,> 100,,

Compound,GI50 (HT29 colon) [nM],TGI (HT29 colon) [µM],GI50 (SN12C renal) [µM],TGI (SN12C renal) [µM],GI50 (786-0 renal) [nM],TGI (786-0 renal) [µM],GI50 (MOLT-4 leukemia) [nM],TGI (MOLT-4 leukemia) [µM],GI50 (HOP-92 NSCLC) [µM],TGI (HOP-92 NSCLC) [µM],GI50 (OVCAR-8 ovarian) [µM],TGI (OVCAR-8 ovarian) [µM],GI50 (SW-620 colon) [µM],TGI (SW-620 colon) [µM],GI50 (UACC-257 melanoma) [nM],TGI (UACC-257 melanoma) [µM],GI50 (A549 NSCLC) [µM],TGI (A549 NSCLC) [µM],GI50 (PC-3 prostate) [nM],TGI (PC-3 prostate) [µM]
CC(C)OCN1COCN=C1NC#N,,> 100,,> 100,,> 100,,> 100,,> 100,,> 100,,34.8,,> 100,,> 100,,
C/C=C(/C)C(=O)OC1C=C(CO)C(=O)C(OC(=O)/C(C)=C\C)C1C(C)C (centres undefined),625,2.33,0.546,1.59,1080,2.63,335,3.89,0.528,1.15,0.633,2.21,,,1280,2.65,1.45,2.94,599,1.8
CNC(=O)OCc1nc(S(C)=O)n(C)c1COC(=O)NC (centres undefined),,> 100,,> 100,,> 100,,> 100,,> 77.8,,> 100,,> 46.4,,> 100,,> 46.4,,
Fc1cccc(F)c1C1SCc2nc3ccccc3n21 (centres undefined),,> 100,,> 100,,> 100,,> 100,,95.3,,> 100,,> 100,,> 100,,> 100,,
CC(=O)O[C@H]1CCC2[C@@H]3CCC4C(=O)c5oncc5C[C@]4(C)C3CC[C@@]21C (some centres undefined),,> 100,,> 100,,> 100,,> 100,,> 100,,> 100,,> 100,,> 100,,> 100,,
COC1OC(C)C(OC(=O)C(C)(C)C)C(C)(O)C1O (centres undefined),,> 100,,> 100,,> 100,,> 100,,> 100,,> 100,,> 100,,> 100,,> 100,,
O=C(O)C1Cc2nc[nH]c2CN1 (centres undefined),,> 100,,> 100,,> 100,,> 100,,> 100,,> 100,,> 100,,> 100,,> 100,,
Cc1c2n(c3ccccc13)CC1C2N(C)OC1(C)C (centres undefined),,> 100,,> 100,,> 100,,> 100,,,,> 100,,,,> 100,,> 100,,
CC(NC1CCC[C@H]1O)c1ccccc1 (mixture of isomers),,> 100,,> 100,,> 100,,> 100,,> 100,,> 100,,> 100,,> 100,,> 100,,
CCCCCCCCCCCCCCCCCC(=O)NCCCNCCCNC(=O)CCCCCCCCCCCCCCCCC,,> 100,,> 100,,> 100,,> 100,,> 100,,> 100,,> 100,,> 100,,> 100,,
COc1ccc2cc(C(=O)/C=C/c3ccc(OC)c(OC)c3)ccc2c1,11900,76.4,13.5,32.6,18800,35.4,5970,> 100,13.2,80.3,14,49.7,4.21,27.1,,,4.29,30.3,20200,> 100
Cc1ccccc1NC(=O)C(=O)Cc1nc2ccccc2s1,,> 100,,> 100,,> 100,,> 100,,> 100,,> 100,,> 100,,> 100,,> 100,,
Oc1cccc(C2SCc3nc4ccccc4n32)c1 (centres undefined),,> 100,,> 100,,> 100,,> 100,,> 100,,> 100,,> 100,,> 100,,> 100,,
N#Cc1cccc(Nc2nccc(-c3cnn4ncccc34)n2)c1,5.72,0.034,0.00674,> 25,6.08,> 25,,,0.00589,0.0166,0.0065,> 25,0.00602,> 25,5.94,0.0154,0.00729,> 25,7.45,> 25
COc1cc2c(cc1OC)-c1c(cc(OC)c(OC)c1OC)C2=O,,> 100,,> 100,,> 100,,> 100,,> 100,,> 100,,> 100,,> 100,,> 100,,
O=C1c2cccc3c(N4CCN(c5ccc6c7c(cccc57)C(=O)N(CCN5CCNCC5)C6=O)CC4)ccc(c23)C(=O)N1CCN1CCNCC1,3910,> 100,7.46,23.2,1840,4.32,,,7.31,29,10.9,41.5,7.64,77.7,19500,37.9,16.3,35.6,13500,32.4
CC(C)(C)C1CCC2c3c([nH]c4ccccc34)C3C(=O)N(c4ccc(Br)cc4)C(=O)C3C2C1 (centres undefined),,44.3,,27.6,,37.3,,26.2,,49,,42.9,,49.4,,50.2,,47.5,,
COc1ccc(C(=O)C(C(=O)C(=O)Nc2nc3ccc(OC)cc3s2)c2ccc(OC)cc2)cc1 (centres undefined),,> 100,,> 100,,> 100,,> 100,,> 100,,> 100,,> 100,,> 100,,> 100,,
O=C1CCC(=O)c2cc(Br)ccc2N1,,> 100,,> 100,,> 100,,> 100,,> 100,,> 100,,> 100,,> 100,,> 100,,
CC(=O)Nc1ccc(/C=c2\sc3nnc(/C=C/c4ccccc4)n3c2=O)cc1,,,,> 50,,> 50,,> 50,,,,> 50,,> 50,,> 50,,> 50,,
COCCOC(C)C(/C=N/NC(N)=S)=N/NC(N)=S (centres undefined),,,> 100,> 100,> 100000,> 100,55.8,> 100,> 100,> 100,> 100,> 100,> 100,> 100,23.2,> 100,> 100,> 100,57.4,> 100
N/C(=N\C(=S)N1CCCCC1)N1CCCCC1,,> 100,,> 100,,> 100,,> 100,,> 100,,> 100,,> 100,,> 100,,> 100,,
